pIC50: −log10 of the molar value.
These compounds were tested against T1, PKMYT1 enzyme (Homo sapiens, UniProt Q99640) (assay: PKMYT1 enzyme inhibition activity, ADP-GLO method). Details: PKMYT1 enzyme 10 nM, ATP 5 µM, 37°C 90 minutes; read-out: ADP-GLO IC50.
T1 construct: purchased Thermo Scientific A33387
T1 sequence (Q99640 1-499): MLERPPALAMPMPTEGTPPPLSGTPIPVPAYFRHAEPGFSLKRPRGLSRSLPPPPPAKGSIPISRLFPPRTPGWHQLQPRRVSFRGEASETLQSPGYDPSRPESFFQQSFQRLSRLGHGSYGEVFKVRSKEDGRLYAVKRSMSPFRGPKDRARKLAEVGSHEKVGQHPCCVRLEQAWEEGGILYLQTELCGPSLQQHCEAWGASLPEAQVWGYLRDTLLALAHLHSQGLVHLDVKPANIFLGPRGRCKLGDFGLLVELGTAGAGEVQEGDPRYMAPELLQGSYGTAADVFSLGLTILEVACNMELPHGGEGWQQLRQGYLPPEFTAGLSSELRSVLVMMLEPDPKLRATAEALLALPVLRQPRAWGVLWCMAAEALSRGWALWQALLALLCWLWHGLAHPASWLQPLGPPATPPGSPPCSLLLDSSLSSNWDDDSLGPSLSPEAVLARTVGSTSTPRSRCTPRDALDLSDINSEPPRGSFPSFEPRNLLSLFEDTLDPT
Format: biochemical

Compound	pIC50
Cc1ccc(O)c(C)c1-n1c(N)c(C(N)=O)c2c(F)nc(C)c(F)c21 [Example 72]	8.01
CC(C)=Cc1ncc2c(C(N)=O)c(N)n(-c3c(C)ccc(O)c3C)c2n1 [Example 42, 6-Amino-7-(3-hydroxy-2,6-dimethylphenyl)-2-(2-methylprop-1-en-1-yl)-7H-pyrrolo[2,3-d]pyrimidine-5-carboxamide]	8.18
COc1c(O)ccc(C)c1-n1c(N)c(C(N)=O)c2cc(C)c(C)nc21 [Example 94]	6.39
Cc1nc(C2CC2)c2c(C(N)=O)c(N)n(-c3c(C)ccc(O)c3C)c2n1 (racemic) [Example 62]	7.77
CCc1cc2c(C(N)=O)c(N)n(-c3c(C)cc(F)c(O)c3C)c2nc1C (atropisomer, axis not shown) [Example 143]	7.74
Cc1ccc(O)c(C)c1-n1c(N)c(C(N)=O)c2cncnc21 [Example 45, 6-Amino-7-(3-hydroxy-2,6-dimethylphenyl)-7H-pyrrolo[2,3-d]pyrimidine-5-carboxamide]	7.97
Cc1ccc(O)c(C)c1-n1c(N)c(C(N)=O)c2cnc(Cl)nc21 [Example 5, 6-Amino-2-chloro-7-(3-hydroxy-2,6-dimethylphenyl)-7H-pyrrolo[2,3-d]pyrimidine-5-carboxamide]	8.10
Cc1ccc(O)c(C)c1-n1c(N)c(C(N)=O)c2cnc(CC(C)C)nc21 [Example 57, 6-Amino-7-(3-hydroxy-2,6-dimethylphenyl)-2-isobutyl-7H-pyrrolo[2,3-d]pyrimidine-5-carboxamide]	8.52
C=Cc1cc2c(C(N)=O)c(N)n(-c3c(C)cc(F)c(O)c3C)c2nc1C (single isomer, unassigned) [Example 142.1]	8.00
Cc1ccc(O)c(C)c1-n1c(N)c(C(N)=O)c2cnc(C#CC3CC3)nc21 [Example 12, 6-Amino-2-(cyclopropylethynyl)-7-(3-hydroxy-2,6-dimethylphenyl)-7H-pyrrolo[2,3-d]pyrimidine-5-carboxamide]	8.18
Cc1ncc2c(C(N)=O)c(N)n(-c3c(C)c(O)cc(F)c3C)c2n1 (racemic) [Example 63]	8.29
C=C(C)c1cnc2c(c1)c(C(N)=O)c(N)n2-c1c(C)cc(F)c(O)c1C [Example 155]	7.63
CCN(CC)c1ncc2c(C(N)=O)c(N)n(-c3c(C)ccc(O)c3C)c2n1 [Example 17, 6-Amino-2-(diethylamino)-7-(3-hydroxy-2,6-dimethylphenyl)-7H-pyrrolo[2,3-d]pyrimidine-5-carboxamide]	7.15
C=Cc1cnc2c(c1)c(C(N)=O)c(N)n2-c1c(C)cc(F)c(O)c1C [Example 148]	8.14
Cc1cc(F)c(O)c(C)c1-n1c(N)c(C(N)=O)c2cc(OC3CCC3)c(C)nc21 [Example 96]	8.03
COc1cc2c(C(N)=O)c(N)n(-c3c(C)cc(F)c(O)c3C)c2nc1C (racemic) [Example 158]	8.09
Cc1cc(F)c(O)c(C)c1-n1c(N)c(C(N)=O)c2cc(CO)c(C)nc21 [Example 164]	8.15
Cc1cc(F)c(O)c(C)c1-n1c(N)c(C(N)=O)c2cc(CC(C)C)c(C)nc21 (racemic) [Example 166]	8.08
Cc1c(O)cc(F)c(C)c1-n1c(N)c(C(N)=O)c2c3cnccc3c(C)cc21 [Example 208]	8.34
Cc1ccc(O)c(C)c1-n1c(N)c(C(N)=O)c2cnc(C#CC(C)(C)O)nc21 [Example 26, 6-Amino-7-(3-hydroxy-2,6-dimethylphenyl)-2-(3-hydroxy-3-methylbut-1-yn-1-yl)-7H-pyrrolo[2,3-d]pyrimidine-5-carboxamide]	7.95
Cc1cc(F)c(O)c(C)c1-n1c(N)c(C(N)=O)c2cc3c(nc21)CCO3 [Example 184]	7.05

Compound	pIC50
Cc1cc2c(C(N)=O)c(N)n(-c3c(C)ccc(O)c3C)c2nc1N [Example 95]	8.02
Cc1ncc2c(C(N)=O)c(N)n(-c3c(C)c(O)cc(F)c3C)c2c1F (racemic) [Example 71]	8.10
Cc1ccc(O)c(C)c1-n1c(N)c(C(N)=O)c2cnc(Br)nc21 [Example 7, 6-Amino-2-bromo-7-(3-hydroxy-2,6-dimethylphenyl)-7H-pyrrolo[2,3-d]pyrimidine-5-carboxamide]	8.03
Cc1cc(F)c(O)c(C)c1-n1c(N)c(C(N)=O)c2cc(C(C)(C)O)c(C)nc21 (racemic) [Example 172]	7.79
CCc1nc(C)nc2c1c(C(N)=O)c(N)n2-c1c(C)cc(F)c(O)c1C [Example 67]	7.26
Cc1cc2c(C(N)=O)c(N)n(-c3c(C)c(O)cc(F)c3C)c2nc1-c1ccccc1 [Example 137]	7.44
Cc1cc(F)c(O)c(C)c1-n1c(N)c(C(N)=O)c2cc(C3=CCOCC3)c(C)nc21 [Example 165]	7.48
C#Cc1ncc2c(C(N)=O)c(N)n(-c3c(C)ccc(O)c3C)c2n1 [Example 47, 6-Amino-2-ethynyl-7-(3-hydroxy-2,6-dimethylphenyl)-7H-pyrrolo[2,3-d]pyrimidine-5-carboxamide]	7.89
Cc1cc2c(C(N)=O)c(N)n(-c3c(C)cc(F)c(O)c3C)c2nc1CC(C)C [Example 151]	7.70
Cc1cc2c(C(N)=O)c(N)n(-c3c(C)c(O)cc(F)c3C)c2nc1C (atropisomer, axis not shown) [Example 22]	7.07
Cc1cc2c(C(N)=O)c(N)n(-c3c(C)c(O)c(F)c(F)c3C)c2nc1C [Example 54]	7.76
Cc1ccc(O)c(C)c1-n1c(N)c(C(N)=O)c2cnc(NC3CC3)nc21 [Example 84]	8.28
Cc1ccc(O)c(C)c1-n1c(N)c(C(N)=O)c2cnc(C#N)nc21 [Example 14, 6-Amino-2-cyano-7-(3-hydroxy-2,6-dimethylphenyl)-7H-pyrrolo[2,3-d]pyrimidine-5-carboxamide]	7.61
CNc1ncc2c(C(N)=O)c(N)n(-c3c(C)ccc(O)c3C)c2n1 [Example 85]	8.17
Cc1cc(F)c(O)c(C)c1-n1c(N)c(C(N)=O)c2cc(S(C)(=O)=O)c(C)nc21 [Example 168]	8.31
Cc1c(O)cc(F)c(C)c1-n1c(N)c(C(N)=O)c2cc(C(C)C)cnc21 (atropisomer, axis not shown) [Example 113.1]	7.03
Cc1cc(F)c(O)c(C)c1-n1c(N)c(C(N)=O)c2cc(C3CC3)cnc21 (atropisomer, axis not shown) [Example 144]	8.24
Cc1ccc(O)c(C)c1-n1c(N)c(C(N)=O)c2cnc(CCC3CC3)nc21 [Example 86]	8.26
Cc1cc2c(C(N)=O)c(N)n(-c3c(C)cc(F)c(O)c3C)c2nc1F [Example 73]	7.87
Cc1ccc(O)c(C)c1-n1c(N)c(C(N)=O)c2cnc(N3CCCC3)nc21 [Example 35, 6-Amino-7-(3-hydroxy-2,6-dimethylphenyl)-2-(pyrrolidin-1-yl)-7H-pyrrolo[2,3-d]pyrimidine-5-carboxamide]	7.42

Same assay, conditions: read-out: ADP-GLO IC50; PKMYT1 enzyme 10 nM, ATP 5 µM, 37°C 90 minutes

pIC50	Compound
7.81	COc1nc(C)nc2c1c(C(N)=O)c(N)n2-c1c(C)ccc(O)c1C [Example 69]
8.02	Cc1nc(C)c2c(C(N)=O)c(N)n(-c3c(C)ccc(O)c3C)c2n1 (atropisomer, axis not shown) [Example 19.2]
7.82	Cc1ccc(O)c(C)c1-n1c(N)c(C(N)=O)c2cnc(CC(C)C)nc21 (atropisomer, axis not shown) [Example 57.1]
8.18	Cc1ccc(O)c(C)c1-n1c(N)c(C(N)=O)c2cc3c(ccn3C)nc21 [Example 206]
